According to patent publication US4478842A, “N-Substituted-2-pyridylindoles” (Ciba-Geigy Corporation, priority 1982, dated 1984):
Counter-ions that a name gives are not always drawn. One block for each compound: values may come before it.

Columns and labels:
prostacyclin (PGI2) = assay: plasma level of prostacyclin (6-keto-PGF1α) in vivo (ionophore A23187 injected); details: rat, oral dose 0.10 mg/kg or higher
Procedure: (§1) The inhibition of the synthesis and the reduction of plasma levels of thromboxane is determined in vivo on administration to rats in the following manner (as adapted from the procedures described by Tai et al. in Anal. Biochem. 87:343, 1978 and by Salmon in Prostaglandins 15:383, 1978):
(§2) Rats are dosed with vehicle or test drug and injected intravenously with ionophore A23187 (0.5 mg/kg) two hours later. Blood is collected for analysis 2 minutes after the ionophore injection. A single aliquot of each plasma sample is assayed for thromboxane B2 and another aliquot for 6-keto-PGF1 α, the stable metabolites of thromboxane A2 and prostacyclin (PGI2) respectively, by radioimmunoassay.

platelet aggregation = assay: variously induced platelet aggregation
Excerpt: (§3) Experimentally, prolongation of bleeding time in the rat is indicative of a beneficial antithrombotic effect.

thrombocytopenia = assay: variously induced thrombocytopenia; details: in vivo
bleeding time = assay: prolongation of bleeding time in the rat; type: in vivo; details: orally to rats, about 30 mg/kg
Excerpt: as §3

[1] = system: arachidonic acid induced pulmonary obstruction; assay: protection against sudden death due to arachidonic acid induced pulmonary obstruction; type: in vivo; details: orally to mice, 100 mg/kg
thromboxane B2 = assay: reduction of plasma levels of thromboxane B2 in vivo (ionophore A23187 injected); details: rat, oral dose as low as 0.10 mg/kg
Procedure: as §1, §2

thromboxane synthetase = target: T1, thromboxane synthetase (Homo sapiens, UniProt P24557); assay: in vitro inhibition of the thromboxane synthetase enzyme (TxB2/PGF2α+β ratio); type: biochemical; details: 30 minutes incubation
T1 construct: crude microsomal preparation of thromboxane synthetase from lysed human platelets; from tissue; host or cells: human platelets (lysed), crude microsomal preparation
T1 sequence (P24557 1-533): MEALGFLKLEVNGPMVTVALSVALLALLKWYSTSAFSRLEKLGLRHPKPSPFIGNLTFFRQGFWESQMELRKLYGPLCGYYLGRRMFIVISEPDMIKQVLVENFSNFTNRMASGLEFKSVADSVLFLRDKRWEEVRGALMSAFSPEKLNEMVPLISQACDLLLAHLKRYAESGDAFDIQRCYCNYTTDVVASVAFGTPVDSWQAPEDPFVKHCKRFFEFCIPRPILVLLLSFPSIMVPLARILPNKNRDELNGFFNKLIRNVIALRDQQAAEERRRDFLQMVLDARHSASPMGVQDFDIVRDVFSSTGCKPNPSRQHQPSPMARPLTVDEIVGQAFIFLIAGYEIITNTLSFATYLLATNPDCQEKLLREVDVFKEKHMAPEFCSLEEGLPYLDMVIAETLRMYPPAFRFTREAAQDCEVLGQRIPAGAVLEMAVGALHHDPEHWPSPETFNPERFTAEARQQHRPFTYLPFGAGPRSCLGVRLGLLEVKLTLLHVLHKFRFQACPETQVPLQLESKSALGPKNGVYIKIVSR
Procedure: Res. Comm. 74, 1432 (1977); the testing procedure is as follows: ^14 C-Arachidonic acid is incubated with an enzyme consisting of solubilized and partially purified prostaglandin cyclo-oxygenase from sheep seminal vesicles and a crude microsomal preparation of thromboxane synthetase from lysed human platelets. The test compound (dissolved in buffer, or if necessary, in a small amount of ethanol) is added to the incubation medium. […] The radioactive zones are located; those corresponding to Thromboxane B2 (TxB2) and PGF2 α+β are transferred to liquid scintillation vials and counted. The ratio of counts for TxB2 /PGF2 α+β is calculated for each concentration of test compound and IC50 values are determined graphically as the concentration of test compound at which the ratio of TxB2 /PGF2 α+β is reduced to 50% of the control value.

SMILES: Cc1c(-c2cccnc2)n(CCCCCCCC(=O)O)c2ccccc12 [Example 1, 1-(7-carboxyheptyl)-3-methyl-2-(3-pyridyl)indole]
- plasma level of prostacyclin (prostacyclin (PGI2)): surprising increase
- inhibition of variously induced platelet aggregation (platelet aggregation): inhibits variously induced platelet aggregation
- inhibition of variously induced thrombocytopenia (thrombocytopenia): inhibits variously induced platelet aggregation and thrombocytopenia
- prolongation of bleeding time (bleeding time): prolongs bleeding time
- protection against sudden death [1]: protects against sudden death

SMILES: Cc1c(-c2cccnc2)n(CCCCCC(=O)O)c2ccc(Cl)cc12 [Example 7, 1-(5-carboxypentyl)-5-chloro-3-methyl-2-(3-pyridyl)indole]
- decrease of the plasma concentration of thromboxane B2 (thromboxane B2): over 50%
- plasma level of prostacyclin (prostacyclin (PGI2)): surprising increase

- IC50 (thromboxane synthetase): 26 nM
SMILES: Cc1c(-c2cccnc2)n(CCOc2ccc(C(=O)O)cc2)c2ccccc12 [Example 20, 1-[2-(4-carboxyphenoxy)ethyl]-2-(3-pyridyl)-3-methylindole]

- IC50 (thromboxane synthetase): 58 nM
SMILES: Cc1c(-c2cccnc2)n(CCSc2ccc(C(=O)O)cc2)c2ccccc12 [Example 22, 1-[2-(4-carboxyphenylthio)ethyl]-2-(3-pyridyl)-3-methylindole hydrochloride]
